These results are taken from patent US20160206539A1, “COMPOSITION FOR SKIN AND SCALP HEALTH” (CONOPCO, INC., d/b/a UNILEVER, priority 2013, published 2016).

Test [1] relates to Neonatal Human Epidermal Melanocytes (NHEM) and HaCat. The experiment in a line: Reduction in melanin content assay (MCA) in melanocyte/keratinocyte co-culture. To be noted: 72 hours treatment, relative to vehicle control.
For test [2], the system named is Xanthomonas oryzae. To be noted: dilute solution sprayed on rice inoculated with Xanthomonas oryzae; cited from earlier work.

In the case of `CCc1ccc(O)cc1O` [Ethyl resorcinol, reference compound], the “Reduction in melanin content” value in test [1] (0.00014 wt % active (Example A)) is recorded as 21.5%.
Turning to `C=C1C(=O)OC2C[C@]3(C)C(CC12)C(=C)C(O)C[C@H]3O` (some centres unmarked) [Granilin], the “Decrease of infection on the leaves” value in test [2] is given as “about 75%”. The “Reduction in melanin content” value was 30.4% in test [1] (0.0005 wt % active (Example 1)), 47.6% in test [1] (0.00075 wt % active (Example 2)) and 52.3% in test [1] (0.001 wt % active (Example 3)).
